US20240360178A1, “MACROCYCLIC IMMUNOMODULATORS” (Bristol-Myers Squibb Company, priority 2021, published 2024)
Positions of bridges follow the written chain, without caps; N, C: chain ends. Non-standard residues stand in square brackets, D forms with d. Residues, ends and D or L forms follow the SMILES beside them. *: point of attachment. Phe(4-COOH) = N[C@@H](Cc1ccc(C(=O)O)cc1)C(=O)O; Bip = N[C@@H](Cc1ccc(-c2ccccc2)cc1)C(=O)O; Phe(3-CN) = N#Cc1cccc(C[C@H](N)C(=O)O)c1; Phe(3-Me) = Cc1cccc(C[C@H](N)C(=O)O)c1; Val(3-OH) = CC(C)(O)[C@H](N)C(=O)O; NMeF = CN[C@@H](Cc1ccccc1)C(=O)O; 4Pal = N[C@@H](Cc1ccncc1)C(=O)O; Cha = N[C@@H](CC1CCCCC1)C(=O)O; Cit = NC(=O)NCCC[C@H](N)C(=O)O; dPip = O=C(O)[C@H]1CCCCN1; Carboxymethyl = O=C(O)C*; NMeA = CN[C@@H](C)C(=O)O; Nle = CCCC[C@H](N)C(=O)O; Dab = NCC[C@H](N)C(=O)O; NBuGly = CCCCNCC(=O)O

Each molecule was assayed against T1, human PD-1 (Jurkat-PD-1 cells) / PE-labeled human PD-L1-Ig (Homo sapiens, UniProt Q15116) (assay: Jurkat-PD-1 Cell Binding High-Content Screening Assay (CBA); Jurkat hPD1-PDL1 assay). Conditions: Jurkat cell line over-expressing human PD-1; PE-labeled PD-L1-Ig 20 nM final; compound incubated 2 hours at 37° C.; read-out: Jurkat HPD1-PDL1 IC50.
T1 construct: expressed in transfected cells; host or cells: Jurkat cell line over-expressing human PD-1
T1 sequence (Q15116 25-288): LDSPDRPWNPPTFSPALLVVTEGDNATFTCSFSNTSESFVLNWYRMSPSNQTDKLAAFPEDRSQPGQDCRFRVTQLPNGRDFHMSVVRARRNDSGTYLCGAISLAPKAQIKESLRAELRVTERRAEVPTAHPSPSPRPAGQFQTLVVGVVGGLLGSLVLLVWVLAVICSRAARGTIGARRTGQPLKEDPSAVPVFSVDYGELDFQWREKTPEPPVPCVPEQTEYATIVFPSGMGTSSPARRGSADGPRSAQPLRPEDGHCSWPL
Procedure, shortened: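 Jurkat cells overexpressing human PD-1 (8×10^3 per well, DMEM with 10% FCS) were preincubated with compound for 2 hours at 37° C. PE-labeled human PD-L1-Ig was then added at 20 nM final. Binding was quantified by high-content imaging.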

| SMILES | IC50 |
| --- | --- |
| Cc1cccc(C[C@@H]2NC(=O)[C@H](CC(=O)O)NC(=O)[C@H](Cc3ccc(OCC(=O)O)cc3)NC(=O)[C@H](Cc3ccncc3)NC(=O)CSC[C@@H](C(=O)N[C@@H](CCN)C(N)=O)NC(=O)[C@H](CO)NC(=O)[C@H](C(C)(C)O)NC(=O)[C@H](CC3CCCCC3)NC(=O)[C@H](CCN)NC(=O)[C@H]3CCCN3C(=O)[C@H](C)N(C)C(=O)[C@H](Cc3ccc(OCC(=O)O)cc3)NC(=O)[C@H](Cc3ccc(-c4ccccc4)cc3)NC(=O)[C@H](Cc3ccc(OCC(=O)O)cc3)NC2=O)c1 [Example 1179] ({CH2CO}-[4Pal]Y(Carboxymethyl)D[Phe(3-Me)]Y(Carboxymethyl)[Bip]Y(Carboxymethyl)[NMeA][dP][Dab][Cha][Val(3-OH)]SC[Dab]-NH2; thioether N-14) | 80 nM |
| Cc1cccc(C[C@@H]2NC(=O)[C@H](CC(=O)O)NC(=O)[C@H](Cc3ccc(OCC(=O)O)cc3)NC(=O)[C@H](Cc3ccncc3)NC(=O)CSC[C@@H](C(=O)N[C@@H](CCN)C(N)=O)NC(=O)[C@H](CO)NC(=O)[C@H](C(C)(C)O)NC(=O)[C@H](CC3CCCCC3)NC(=O)[C@H](CCN)NC(=O)[C@H]3CCCN3C(=O)[C@H](C)N(C)C(=O)[C@H](CCCNC(N)=O)NC(=O)[C@H](Cc3ccc(-c4ccccc4)cc3)NC(=O)[C@H](Cc3ccc(OCC(=O)O)cc3)NC2=O)c1 [Example 1180] ({CH2CO}-[4Pal]Y(Carboxymethyl)D[Phe(3-Me)]Y(Carboxymethyl)[Bip][Cit][NMeA][dP][Dab][Cha][Val(3-OH)]SC[Dab]-NH2; thioether N-14) | 20 nM |
| CC(C)C[C@@H]1NC(=O)[C@H](Cc2c[nH]c3ccccc23)NC(=O)[C@H](CC(=O)O)NC(=O)[C@H](Cc2ccc(OCC(=O)O)cc2)NC(=O)[C@H](Cc2ccncc2)NC(=O)CSC[C@@H](C(=O)N[C@@H](CCN)C(N)=O)NC(=O)[C@H](CO)NC(=O)[C@H](C(C)(C)O)NC(=O)[C@H](CC2CCCCC2)NC(=O)[C@H](CCN)NC(=O)[C@H]2CCCN2C(=O)[C@H](C)N(C)C(=O)[C@H](CCCNC(N)=O)NC(=O)[C@H](Cc2ccc(-c3ccccc3)cc2)NC1=O [Example 1181] ({CH2CO}-[4Pal]Y(Carboxymethyl)DWL[Bip][Cit][NMeA][dP][Dab][Cha][Val(3-OH)]SC[Dab]-NH2; thioether N-14) | 100 nM |
| Cc1cccc(C[C@@H]2NC(=O)[C@H](CC(=O)O)NC(=O)[C@H](Cc3cccc(C#N)c3)NC(=O)[C@H](Cc3ccncc3)NC(=O)CSC[C@@H](C(=O)N[C@@H](CCN)C(N)=O)NC(=O)[C@H](CO)NC(=O)[C@H](C(C)(C)O)NC(=O)[C@H](CC3CCCCC3)NC(=O)[C@H](CCN)NC(=O)[C@H]3CCCN3C(=O)[C@H](C)N(C)C(=O)[C@H](Cc3ccc(OCC(=O)O)cc3)NC(=O)[C@H](Cc3ccc(-c4ccccc4)cc3)NC(=O)[C@H](Cc3ccc(OCC(=O)O)cc3)NC2=O)c1 [Example 1182] ({CH2CO}-[4Pal][Phe(3-CN)]D[Phe(3-Me)]Y(Carboxymethyl)[Bip]Y(Carboxymethyl)[NMeA][dP][Dab][Cha][Val(3-OH)]SC[Dab]-NH2; thioether N-14) | 240 nM |
| CC(C)C[C@@H]1NC(=O)[C@H](Cc2c[nH]c3ccccc23)NC(=O)[C@H](CC(=O)O)NC(=O)[C@H](Cc2cccc(C#N)c2)NC(=O)[C@H](Cc2ccncc2)NC(=O)CSC[C@@H](C(=O)N[C@@H](CCN)C(N)=O)NC(=O)[C@H](CO)NC(=O)[C@H](C(C)(C)O)NC(=O)[C@H](CC2CCCCC2)NC(=O)[C@H](CCN)NC(=O)[C@H]2CCCN2C(=O)[C@H](C)N(C)C(=O)[C@H](C(C)C)NC(=O)[C@H](Cc2ccc(-c3ccccc3)cc2)NC1=O [Example 1183] ({CH2CO}-[4Pal][Phe(3-CN)]DWL[Bip]V[NMeA][dP][Dab][Cha][Val(3-OH)]SC[Dab]-NH2; thioether N-14) | 40 nM |
| Cc1cccc(C[C@@H]2NC(=O)[C@H](CC(=O)O)NC(=O)[C@H](Cc3ccc(OCC(=O)O)cc3)NC(=O)[C@H](Cc3ccncc3)NC(=O)CSC[C@@H](C(=O)N[C@@H](CCN)C(N)=O)NC(=O)[C@H](CO)NC(=O)[C@H](C(C)(C)O)NC(=O)[C@H](CC3CCCCC3)NC(=O)[C@H](CCN)NC(=O)[C@H]3CCCN3C(=O)[C@H](C)N(C)C(=O)[C@H](C(C)C)NC(=O)[C@H](Cc3ccc(-c4ccccc4)cc3)NC(=O)[C@H](Cc3ccc(OCC(=O)O)cc3)NC2=O)c1 [Example 1184] ({CH2CO}-[4Pal]Y(Carboxymethyl)D[Phe(3-Me)]Y(Carboxymethyl)[Bip]V[NMeA][dP][Dab][Cha][Val(3-OH)]SC[Dab]-NH2; thioether N-14) | 20 nM |
| CC(C)C[C@@H]1NC(=O)[C@H](Cc2c[nH]c3ccccc23)NC(=O)[C@H](CC(=O)O)NC(=O)[C@H](Cc2ccc(OCC(=O)O)cc2)NC(=O)[C@H](Cc2ccncc2)NC(=O)CSC[C@@H](C(=O)N[C@@H](CCN)C(N)=O)NC(=O)[C@H](CO)NC(=O)[C@H](C(C)(C)O)NC(=O)[C@H](CC2CCCCC2)NC(=O)[C@H](CCN)NC(=O)[C@H]2CCCN2C(=O)[C@H](C)N(C)C(=O)[C@H](C(C)C)NC(=O)[C@H](Cc2ccc(-c3ccccc3)cc2)NC1=O [Example 1185] ({CH2CO}-[4Pal]Y(Carboxymethyl)DWL[Bip]V[NMeA][dP][Dab][Cha][Val(3-OH)]SC[Dab]-NH2; thioether N-14) | 30 nM |
| CCCCN1CC(=O)N[C@@H](CCN)C(=O)N[C@@H](CC2CCCCC2)C(=O)N[C@@H](C(C)C)C(=O)N[C@@H](CO)C(=O)N[C@H](C(=O)N[C@@H](CCN)C(N)=O)CSCC(=O)N[C@@H]([C@@H](C)O)C(=O)N[C@@H](Cc2ccc(OCC(=O)O)cc2)C(=O)N[C@@H](CC(=O)O)C(=O)N[C@@H](Cc2cccc(C)c2)C(=O)N[C@@H](Cc2ccc(OCC(=O)O)cc2)C(=O)N[C@@H](Cc2ccc(-c3ccccc3)cc2)C(=O)N[C@@H](Cc2ccc(OCC(=O)O)cc2)C(=O)N(C)[C@@H](C)C1=O [Example 1186] ({CH2CO}-TY(Carboxymethyl)D[Phe(3-Me)]Y(Carboxymethyl)[Bip]Y(Carboxymethyl)[NMeA][NBuGly][Dab][Cha]VSC[Dab]-NH2; thioether N-14) | 380 nM |
| CCCCN1CC(=O)N[C@@H](CCN)C(=O)N[C@@H](CC2CCCCC2)C(=O)N[C@@H](C(C)C)C(=O)N[C@@H](CO)C(=O)N[C@H](C(=O)N[C@@H](CCN)C(N)=O)CSCC(=O)N[C@@H](Cc2ccncc2)C(=O)N[C@@H](Cc2ccc(OCC(=O)O)cc2)C(=O)N[C@@H](CC(=O)O)C(=O)N[C@@H](Cc2cccc(C)c2)C(=O)N[C@@H](Cc2ccc(OCC(=O)O)cc2)C(=O)N[C@@H](Cc2ccc(-c3ccccc3)cc2)C(=O)N[C@@H](Cc2ccc(OCC(=O)O)cc2)C(=O)N(C)[C@@H](C)C1=O [Example 1187] ({CH2CO}-[4Pal]Y(Carboxymethyl)D[Phe(3-Me)]Y(Carboxymethyl)[Bip]Y(Carboxymethyl)[NMeA][NBuGly][Dab][Cha]VSC[Dab]-NH2; thioether N-14) | 290 nM |

Next, values leading:

| IC50 | SMILES |
| --- | --- |
| 50 nM | CC(C)C[C@@H]1NC(=O)[C@H](Cc2c[nH]c3ccccc23)NC(=O)[C@H](CC(=O)O)NC(=O)[C@H](Cc2ccc(OCC(=O)O)cc2)NC(=O)[C@H]([C@@H](C)O)NC(=O)CSC[C@@H](C(=O)N[C@@H](CCN)C(N)=O)NC(=O)[C@H](CO)NC(=O)[C@H](C(C)(C)O)NC(=O)[C@H](CC2CCCCC2)NC(=O)[C@H](CCN)NC(=O)[C@H]2CCCCN2C(=O)[C@H]2CCCN2C(=O)[C@H](C(C)C)NC(=O)[C@H](Cc2ccc(-c3ccccc3)cc2)NC1=O [Example 1188] ({CH2CO}-TY(Carboxymethyl)DWL[Bip]V[dP][dPip][Dab][Cha][Val(3-OH)]SC[Dab]-NH2; thioether N-14) |
| 70 nM | CC(C)C[C@@H]1NC(=O)[C@H](Cc2c[nH]c3ccccc23)NC(=O)[C@H](CC(=O)O)NC(=O)[C@H](Cc2ccc(C(=O)O)cc2)NC(=O)[C@H](Cc2ccncc2)NC(=O)CSC[C@@H](C(=O)N[C@@H](CCN)C(N)=O)NC(=O)[C@H](CO)NC(=O)[C@H](C(C)(C)O)NC(=O)[C@H](CC2CCCCC2)NC(=O)[C@H](CCN)NC(=O)[C@H]2CCCCN2C(=O)[C@H]2CCCN2C(=O)[C@H](C(C)C)NC(=O)[C@H](Cc2ccc(-c3ccccc3)cc2)NC1=O [Example 1189] ({CH2CO}-[4Pal][Phe(4-COOH)]DWL[Bip]V[dP][dPip][Dab][Cha][Val(3-OH)]SC[Dab]-NH2; thioether N-14) |
| 550 nM | Cc1cccc(C[C@@H]2NC(=O)[C@H](CC(=O)O)NC(=O)[C@H](Cc3ccc(OCC(=O)O)cc3)NC(=O)[C@H](CCCNC(=N)N)NC(=O)CSC[C@@H](C(=O)N[C@@H](CCN)C(N)=O)NC(=O)[C@H](CO)NC(=O)[C@H](C(C)(C)O)NC(=O)[C@H](CC3CCCCC3)NC(=O)[C@H](CCN)NC(=O)[C@H]3CCCCN3C(=O)[C@H]3CCCN3C(=O)[C@H](Cc3ccc(OCC(=O)O)cc3)NC(=O)[C@H](Cc3ccc(-c4ccccc4)cc3)NC(=O)[C@H](Cc3ccc(OCC(=O)O)cc3)NC2=O)c1 [Example 1190] ({CH2CO}-RY(Carboxymethyl)D[Phe(3-Me)]Y(Carboxymethyl)[Bip]Y(Carboxymethyl)[dP][dPip][Dab][Cha][Val(3-OH)]SC[Dab]-NH2; thioether N-14) |
| 690 nM | CCCC[C@@H]1NC(=O)[C@H](C(C)C)NC(=O)[C@H](Cc2ccccc2)N(C)C(=O)[C@H](CC(=O)O)NC(=O)[C@H](CCC(=O)O)NC(=O)[C@H](Cc2ccc(-c3ccccc3)cc2)NC(=O)[C@H](C(C)C)NC(=O)[C@H](Cc2c[nH]c3ccccc23)NC(=O)[C@H](CC(=O)O)NC(=O)[C@H](Cc2ccc(O)cc2)NC(=O)[C@H](Cc2ccccc2)NC(=O)CSC[C@@H](C(=O)NCC(N)=O)NC(=O)[C@H](CCCNC(=N)N)NC(=O)[C@H](C(C)C)NC1=O [Example 1191] ({CH2CO}-FYDWV[Bip]ED[NMeF]V[Nle]VRCG-NH2; thioether N-14) |
| 920 nM | CCCC[C@@H]1NC(=O)[C@H](CCCCN)NC(=O)[C@H](Cc2ccccc2)N(C)C(=O)[C@H](CC(=O)O)NC(=O)[C@H](CCCNC(=N)N)NC(=O)[C@H](Cc2ccc(-c3ccccc3)cc2)NC(=O)[C@H](C(C)C)NC(=O)[C@H](Cc2c[nH]c3ccccc23)NC(=O)[C@H](CC(=O)O)NC(=O)[C@H](Cc2ccc(O)cc2)NC(=O)[C@H](Cc2ccccc2)NC(=O)CSC[C@@H](C(=O)NCC(N)=O)NC(=O)[C@H](CCCNC(=N)N)NC(=O)[C@H](C(C)C)NC1=O [Example 1192] ({CH2CO}-FYDWV[Bip]RD[NMeF]K[Nle]VRCG-NH2; thioether N-14) |
